Laboratory results from PubChem BioAssay (NCI).
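A five-concentration, 48-hour dose response in 96-well plates underlies each endpoint, interpolated linearly between surrounding concentrations. At the GI50, growth is halved. The concentration for full growth arrest is given as TGI.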

What was measured:
Assay in all cases: DTP human tumour cell line panel, 48 h
OVCAR-3 ovarian = system: OVCAR-3 ovarian
UO-31 renal = system: UO-31 renal
A498 renal = system: A498 renal
SN12C renal = system: SN12C renal
LOX IMVI melanoma = system: LOX IMVI melanoma
OVCAR-5 ovarian = system: OVCAR-5 ovarian
SK-MEL-5 melanoma = system: SK-MEL-5 melanoma
PC-3 prostate = system: PC-3 prostate
NCI-H522 lung = system: NCI-H522 lung
MCF7 breast = system: MCF7 breast

Structure (SMILES) | TGI (OVCAR-3 ovarian) | TGI (UO-31 renal) | TGI (A498 renal) | TGI (SN12C renal) | TGI (LOX IMVI melanoma) | TGI (OVCAR-5 ovarian) | TGI (SK-MEL-5 melanoma) | TGI (PC-3 prostate) | TGI (NCI-H522 lung) | TGI (MCF7 breast) | GI50 (OVCAR-3 ovarian) | GI50 (UO-31 renal) | GI50 (A498 renal) | GI50 (SN12C renal) | GI50 (LOX IMVI melanoma) | GI50 (OVCAR-5 ovarian) | GI50 (SK-MEL-5 melanoma) | GI50 (PC-3 prostate) | GI50 (MCF7 breast) | GI50 (NCI-H522 lung)
COc1cc(-c2oc3c(OC)c(O)c(OC)c(O)c3c(=O)c2OC)cc(OC)c1OC | 95.9 µM | > 100 µM | > 100 µM | > 100 µM | > 100 µM | > 100 µM | > 100 µM | > 100 µM | 81.8 µM | > 100 µM | – | – | – | – | – | – | – | – | – | –
C=C(C)COc1ccc2c(c1)CCC1C2CCC2(C)C(=O)/C(=N/O)CC12 (centres undefined) | 14.6 µM | 15.3 µM | 24.3 µM | 14 µM | 13.9 µM | 18.7 µM | 21.1 µM | 10.5 µM | 17.4 µM | 10.5 µM | – | – | – | – | – | – | – | – | – | –
COc1ccc2c(c1)OCC1c3cc(OC)c4ccccc4c3OC21 (centres undefined) | 4.08 µM | > 100 µM | > 100 µM | 77.4 µM | > 100 µM | 57 µM | 24.2 µM | > 100 µM | – | > 100 µM | 1.5 µM | 22.2 µM | 25 µM | 17.1 µM | 16.5 µM | 10.2 µM | 5.11 µM | 8.82 µM | 3.59 µM | –
CCCCCOC(=O)Nc1nc(=O)n(C2OC(C)C(O)C2O)cc1F (centres undefined) | – | > 10000 µM | – | > 10000 µM | – | > 10000 µM | > 10000 µM | > 10000 µM | > 10000 µM | – | – | > 10000 µM | – | > 10000 µM | – | > 10000 µM | 338 µM | > 10000 µM | – | > 10000 µM
COc1cc(C2C(C(=O)NCc3ccccc3)=C(C)NC(C)=C2C(=O)NCc2ccccc2)ccc1O | > 100 µM | > 100 µM | > 100 µM | > 100 µM | > 100 µM | > 100 µM | > 100 µM | – | – | – | – | – | – | – | – | – | – | – | – | –
O=C1CCc2cc(Br)ccc2O1 | > 100 µM | – | > 100 µM | > 100 µM | > 100 µM | > 100 µM | > 100 µM | > 100 µM | > 100 µM | > 100 µM | – | – | – | – | – | – | – | – | – | –
Clc1nc(Cl)c2ncn(-c3ccccc3)c2n1 | 3.46 µM | 3.13 µM | 25 µM | 21.5 µM | 3.28 µM | 30.4 µM | 22.3 µM | 20.1 µM | 5.09 µM | 24.3 µM | 1.69 µM | 1.63 µM | 12 µM | 7.45 µM | 1.67 µM | 15 µM | 10.4 µM | 5.29 µM | 4.09 µM | 1.9 µM
COc1ccc(-c2nc3sccn3c2-c2ccnc(NCCNS(=O)(=O)c3ccc(C(F)(F)F)cc3)n2)cc1 | > 100 µM | > 100 µM | 6.86 µM | 8.38 µM | 19.2 µM | > 100 µM | 2.52 µM | 3.34 µM | 17 µM | > 100 µM | 2.03 µM | 1.09 µM | 0.31 µM | 0.688 µM | 3.26 µM | 9.38 µM | 1.24 µM | 0.303 µM | 3.15 µM | 2.81 µM
Nc1nc(N)c2cc(S(=O)(=O)c3ccc4ccccc4c3)ccc2n1 | > 100 µM | – | – | > 100 µM | > 100 µM | > 100 µM | > 65.7 µM | > 100 µM | > 93 µM | > 100 µM | – | – | – | – | – | – | – | – | 5.17 µM | –
Cc1ccc(NC(=S)NNC(=S)Nc2ccc(C)cc2)cc1 | 7.51 µM | > 100 µM | > 100 µM | – | > 100 µM | > 100 µM | > 100 µM | > 100 µM | 5.83 µM | > 100 µM | 2.9 µM | 11.6 µM | 2.96 µM | – | 6.13 µM | > 100 µM | 4.36 µM | 10.2 µM | 3.75 µM | 2.03 µM
O=C(c1ccccc1)n1cc(/C=C/[N+](=O)[O-])c2ccccc21 | > 100 µM | 66.1 µM | > 100 µM | > 100 µM | 29.8 µM | > 100 µM | > 100 µM | – | 28.8 µM | – | – | – | – | – | – | – | – | – | – | –
NS(=O)(=O)c1ccc(N=Nc2c(O)[nH]c3ccc(C(=O)NCCCn4ccnc4)cc23)cc1 | > 25 µM | > 25 µM | > 25 µM | > 25 µM | > 25 µM | > 25 µM | > 25 µM | > 25 µM | > 25 µM | > 25 µM | > 25 µM | > 25 µM | > 25 µM | > 25 µM | > 25 µM | > 25 µM | > 25 µM | > 25 µM | > 25 µM | > 25 µM
CC[O-].CC[O-].O=C1C=C([O-])C(=O)c2ccccc21.O=C1C=C([O-])C(=O)c2ccccc21.[Ti+4] | > 100 µM | > 100 µM | > 60.9 µM | > 100 µM | > 100 µM | > 100 µM | 55.9 µM | – | > 100 µM | – | > 100 µM | > 86.1 µM | 22.5 µM | > 100 µM | 5.25 µM | > 100 µM | 3.07 µM | – | – | > 40.1 µM
CCN(N=O)C1C2(CCCC2)NC(=O)C12CCCC2 (centres undefined) | > 100 µM | > 100 µM | > 100 µM | > 100 µM | > 100 µM | > 100 µM | – | – | – | – | – | – | – | – | – | – | – | – | – | –
CSC1=CC(=O)c2ccccc2C1=O | 3.37 µM | 2.84 µM | – | 19.4 µM | 3.92 µM | 34.2 µM | 19 µM | 12.5 µM | 4.16 µM | 3.65 µM | 1.78 µM | 1.4 µM | – | 5.31 µM | 1.75 µM | 17.4 µM | 5.74 µM | 2.54 µM | 1.72 µM | 2.02 µM
C[n+]1cccc(NC(=O)c2ccc3ccc4ccc(C(=O)Nc5ccc[n+](C)c5)nc4c3n2)c1 | > 100 µM | > 100 µM | > 28 µM | 1.32 µM | > 100 µM | > 100 µM | – | > 100 µM | 23 µM | > 100 µM | 4.3 µM | > 20.2 µM | 7.14 µM | 0.157 µM | 5.6 µM | 47.8 µM | – | 6.21 µM | 2.35 µM | 0.645 µM
